We go through 1 compound from patent publication US20250161286A1 (AEVIS BIO, INC., priority 2022, published 2025).

In one data set the target is cereblon (CRBN) (Homo sapiens, UniProt Q96SW2). Description: In vitro CRBN binding assay (AlphaScreen, competitive inhibition of the PROTAC assay). For orientation: In Alpha technology, singlet oxygen from a donor bead excites a nearby acceptor bead.
In data set [1] the test system is mouse model with Parkinson's disease induced by MPTP administration. In words: Grip strength test in MPTP-induced Parkinson's disease mouse model. Conditions: MPTP mice. The format is in vivo. As to the method: To cause the disease, mice in the G2, G3, G4, and G5 groups were administered MPTP dissolved in saline via an intraperitoneal route at 2-hour intervals four times a day (20 mg/kg/time), while the G1 group received the same amount of saline.
A grip strength test was performed on day 6 of the test. When a mouse put on a grip strength measuring device (SLD-5FGN, Duratool, China) pulled a net of the device, the measuring device automatically measured the animal's grip strength and expressed it in grams. The average value was measured through five tests per individual.

The subject of the next data set is iNOS and COX-2. In words: iNOS and COX-2 expression in LPS-stimulated RAW264.7 cells (immunoblotting). In kind it is cell-based, mouse. The settings on record: RAW264.7 cells, 3.33, 10 or 30 μM, 60 ng/ml LPS, 24 hours. The method, then: To confirm an oxidative stress suppression effect, the expression levels of iNOS and COX-2 were confirmed.
To this end, the RAW264.7 cell line, which is a mouse macrophage cell line, was purchased from the Korea Cell Line Bank (KCLB, Korea) and used, and cultured in a DMEM medium (Corning, MD, USA) supplemented with 10% fetal bovine serum (Corning, MD, USA), 100 U/ml of penicillin (Corning, MD, USA), and 100 μg/ml of streptomycin (Corning, MD, USA) at 37° C. in a 5% CO2 incubator.
(§1) After 1 hour, the cells were stimulated by treatment with 60 ng/ml of LPS, and further cultured for 24 hours. The cells were disrupted by adding a RIPA buffer containing a protease inhibitor cocktail (Thermo Fisher Scientific) and centrifuged at 14,000 rpm for 15 minutes at 4° C. to obtain a cell extract. Equal amounts of the cell extract were loaded, and proteins were separated through SDS-PAGE and then transferred to a PVDF film. The protein-transferred membrane was blocked using skim milk, incubated with a primary antibody for 3 hours at room temperature, and then incubated with an HRP-conjugated secondary antibody for 1 hour at room temperature. The resulting product was washed with TBS-T three times between steps. […]
Background: In western blotting, separated proteins are transferred to a membrane and probed.

Data set [2] can be described thus: Cytotoxicity evaluation, CCK analysis kit. In kind it is cell-based. Conditions: human, MM.1S (CRL-2974) multiple myeloma cells; MM.1S cells, treated for 3 days. The method, then: The MM.1S (CRL-2974) cell line, which is a human multiple myeloma cell line, was purchased from the American Type Culture Collection (ATCC, Manassas, VA, USA) and used, and incubated using RPMI1640 medium (Corning, MD, USA) supplemented with 10% fatal bovine serum (Corning, MD, USA), 100 U/ml of penicillin (Corning, MD, USA), and 100 μg/ml of streptomycin (Corning, MD, USA) at 37° C. in a 5% CO2 incubator for 24 hours.

Data set [3] can be described thus: Stability of 3-MP in human plasma (UPLC-MS). The format is in vitro ADME. The method, then:
To plot a standard calibration curve, the stock sample was diluted by half with acetonitrile from 125 to 0.39 μg/mL to prepare standard solutions for a total of 10 samples at different concentrations, and the calibration curve was plotted as shown in FIG. 6A.
For the experiment of verifying stability in plasma, 10 μL of the test drug prepared at a concentration of 100 μg/mL was added to 90 μL of human plasma and mixed for 30 seconds, and then immediately after the addition, the plasma-mixed test drug was incubated for 15, 30, 60, or 120 minutes to prepare samples. Afterward, 400 μL of 100% ethyl acetate was added to each sample and extracted using a vortex mixture for 1 minute. […] Initially, the mobile phase B was increased from 5% to 95% until 9 minutes and analyzed, the mobile phase B was maintained 95% until 12 minutes, and then the mobile phase B was lowered to 5% and equilibrated, and used in the subsequent analysis. the flow rate of the mobile phase was 0.3 mL/min, the sample injection volume was 2 μL, and the mass spectrometer was operated in the ESI-positive mode. The spray voltage was set to 3.5 kV, and the flow rates of the nitrogen sheath gas, auxiliary gas, and sweep gas were analyzed as 50, 10, and 1 (arbitrary units), respectively. […]

In the next data set the test system is SALL4. Description: SALL4 degradation by immunoblotting in Tera-1 cells. The format is cell-based, human. The settings on record: 0.000128-10 μM, 4 hours.
Excerpt: It has been reported that a cereblon (CRBN)-binding therapeutic such as a thalidomide-based compound can cause severe congenital abnormalities such as forelimb shortening or brachydactyly, which are closely associated with the decomposition of SALL4.
To this end, the Tera-1 cell line (HTB-105), which is a human embryonic carcinoma cell line, was purchased from the American Type Culture Collection (ATCC, Manassas, VA, USA) and used, and then cultured using a DMEM medium (Corning, MD, USA) supplemented with 10% fetal bovine serum (Corning, MD, USA), 100 U/ml of penicillin (Corning, MD, USA), and 100 μg/ml streptomycin (Corning, MD, USA) at 37° C. in a 5% CO2 incubator.
as §1, with “The” for “After 1 hour, the cells were stimulated by treatment with 60 ng/ml of LPS, and further cultured for 24 hours. The”, “Scientific),” for “Scientific)”, “by” for “through”, “membrane.” for “film.”

The structures appear in SMILES notation. Where only a bound is given, the exact number is not on record here.

The term IC50 denotes the point on the concentration scale where inhibition reaches its midpoint. A higher IC50 goes with lower potency. In turn, `Nc1cccc2c1C(=S)N(C1CCC(=O)NC1=O)C2=O` (centres unmarked) [3-MP, 3-thiopomalidomide] registered an IC50 on cereblon (CRBN) of 190 nM. The grip strength entry in data set [1] (oral, 90 mg/kg) is “recovered to a level similar to that of the vehicle administration group”; in data set [1] (oral, 10, 30, 90 mg/kg/day, versus MPTP group), “increased in a concentration-dependent manner”. The “expression of iNOS and COX-2 (protein)” value with iNOS and COX-2 is “inhibit the expression of iNOS and COX-2”. Also, in data set [2], the half-maximal inhibitory concentration (IC50) at 3 days was at least 50000 nM. The “stability in plasma over time” value in data set [3] (0 to 120 minutes) is “maintained without significant changes”. In addition, the plasma level in data set [3] (immediately after plasma addition (0 minutes)) stood at 80 µg/mL. In the data set on SALL4, the “decomposition of SALL4” value was “less decomposition of SALL4 than pomalidomide”.
